From ChEMBL document CHEMBL5113380, “Functionalized quinoxalinones as privileged structures with broad-ranging pharmacological activities” (Eur J Med Chem, 2022)
In brackets after ≈: the same amount, converted by molar mass.

Key:
[1] = system: Pseudomonas aeruginosa; experiment: Antibacterial activity against Pseudomonas aeruginosa; type: functional
[2] = system: Staphylococcus aureus; experiment: Antibacterial activity against Staphylococcus aureus; type: functional
[3] = system: Escherichia coli; experiment: Antibacterial activity against Escherichia coli W3110; type: functional
[4] = Inhibition of Escherichia coli topoisomerase 4
[5] = Dissociation constant, pKa of the compound; type: physicochemical
[6] = system: Streptococcus pneumoniae; experiment: Antibacterial activity against Streptococcus pneumoniae; type: functional
[7] = molecular target: T1, Glutamate receptor ionotropic AMPA (Homo sapiens, UniProt P42261+P42262+P42263+P48058); experiment: Displacement of [3H]AMPA from AMPA receptor (unknown origin); type: protein-complex assay
[8] = Displacement of [3H]glycine from AMPA receptor (unknown origin); type: protein-complex assay, Homo sapiens
[9] = molecular target: T1, Glutamate receptor ionotropic AMPA; experiment: Displacement of [3H]kainic acid from AMPA receptor (unknown origin); type: protein-complex assay
[10] = molecular target: Glutamate [NMDA] receptor; experiment: Displacement of [3H]MK-801 from NMDA receptor (unknown origin); type: protein-complex assay, Homo sapiens
[11] = system: A549; experiment: Antiproliferative activity against human A549 cells; type: functional, cell-based
[12] = system: HeLa; experiment: Antiproliferative activity against human HeLa cells; type: functional, cell-based
[13] = system: LS174T; experiment: Antiproliferative activity against human LS174T cells; type: functional, cell-based
[14] = system: MRC5; experiment: Antiproliferative activity against human MRC5 cells; type: functional, cell-based
[15] = system: Pyricularia grisea; experiment: Antifungal activity against Magnaporthe grisea GD08-T19 at 50 ug/ml; type: functional; conditions: dose 50 µg/ml
[16] = system: Pyricularia grisea; experiment: Antifungal activity against Magnaporthe grisea GD08-T19 assessed as diameter zone of inhibition; type: functional
[17] = molecular target: T1, Glutamate receptor ionotropic AMPA; experiment: Displacement of [3H]CNQX from AMPA receptor (unknown origin); type: protein-complex assay
[18] = molecular target: T2, Vascular endothelial growth factor receptor 2 (Homo sapiens, UniProt P35968); experiment: Inhibition of VEGFR2 (unknown origin) at 1 uM relative to control
T2 sequence (P35968 whole entry): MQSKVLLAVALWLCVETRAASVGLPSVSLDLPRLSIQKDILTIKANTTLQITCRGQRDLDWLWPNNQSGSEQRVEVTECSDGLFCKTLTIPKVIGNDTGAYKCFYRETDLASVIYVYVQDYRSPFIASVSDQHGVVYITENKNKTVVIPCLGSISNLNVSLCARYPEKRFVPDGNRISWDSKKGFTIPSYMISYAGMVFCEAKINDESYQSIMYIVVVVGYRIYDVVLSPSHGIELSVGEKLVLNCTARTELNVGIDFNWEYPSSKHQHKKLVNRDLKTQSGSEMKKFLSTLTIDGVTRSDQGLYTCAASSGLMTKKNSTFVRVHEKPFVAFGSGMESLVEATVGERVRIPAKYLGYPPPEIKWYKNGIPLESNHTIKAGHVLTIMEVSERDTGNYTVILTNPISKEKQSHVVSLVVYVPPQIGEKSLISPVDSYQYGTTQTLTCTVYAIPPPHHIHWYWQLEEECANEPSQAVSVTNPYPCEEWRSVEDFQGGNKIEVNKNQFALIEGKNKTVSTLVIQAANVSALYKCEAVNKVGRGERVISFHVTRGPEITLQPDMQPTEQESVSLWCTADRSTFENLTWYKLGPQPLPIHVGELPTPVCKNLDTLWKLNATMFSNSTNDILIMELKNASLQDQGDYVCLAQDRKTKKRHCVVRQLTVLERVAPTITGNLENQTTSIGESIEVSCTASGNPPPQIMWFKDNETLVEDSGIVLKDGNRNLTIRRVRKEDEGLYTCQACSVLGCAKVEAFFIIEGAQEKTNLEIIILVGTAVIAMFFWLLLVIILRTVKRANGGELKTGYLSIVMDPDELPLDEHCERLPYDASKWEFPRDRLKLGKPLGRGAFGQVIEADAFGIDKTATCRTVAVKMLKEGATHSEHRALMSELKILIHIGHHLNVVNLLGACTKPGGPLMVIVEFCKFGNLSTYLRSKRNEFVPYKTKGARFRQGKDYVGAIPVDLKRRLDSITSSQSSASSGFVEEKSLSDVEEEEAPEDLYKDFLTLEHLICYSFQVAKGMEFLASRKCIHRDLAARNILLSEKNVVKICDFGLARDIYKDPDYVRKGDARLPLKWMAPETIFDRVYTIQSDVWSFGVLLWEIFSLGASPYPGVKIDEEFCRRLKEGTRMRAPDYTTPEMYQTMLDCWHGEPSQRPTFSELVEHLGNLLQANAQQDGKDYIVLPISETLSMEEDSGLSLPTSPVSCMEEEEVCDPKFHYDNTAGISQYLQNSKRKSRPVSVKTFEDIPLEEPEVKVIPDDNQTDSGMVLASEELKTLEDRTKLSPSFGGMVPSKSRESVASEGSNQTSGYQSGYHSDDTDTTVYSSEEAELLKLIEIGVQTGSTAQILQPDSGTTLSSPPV

[19] = system: MCF7; experiment: Antiproliferative activity against human MCF7 cells; type: functional, cell-based
[20] = Antiproliferative activity against human 3AO cells; type: functional, cell-based
[21] = system: PC-3; experiment: Antiproliferative activity against human PC-3 cells; type: functional, cell-based
[22] = system: K562; experiment: Antiproliferative activity against human K562 cells; type: functional, cell-based
[23] = system: BEAS-2B; experiment: Antiproliferative activity against human BEAS-2B cells; type: functional, cell-based
[24] = Inhibition of KA-induced cytotoxicity in human hippocampal cell culture; type: toxicity, cell-based; conditions: Hippocampal neurone
[25] = system: Escherichia coli; experiment: Antibacterial activity against Escherichia coli; type: functional
[26] = system: Candida albicans; experiment: Antifungal activity against Candida albicans; type: functional
[27] = system: Enterococcus faecalis; experiment: Antibacterial activity against Enterococcus faecalis; type: functional
[28] = system: Klebsiella pneumoniae; experiment: Antibacterial activity against Klebsiella pneumoniae; type: functional
[29] = system: Aspergillus fumigatus; experiment: Antifungal activity against Aspergillus fumigatus; type: functional
[30] = system: Mycobacterium tuberculosis; experiment: Antimycobacterial activity against Mycobacterium tuberculosis H37Rv; type: functional
[31] = system: Staphylococcus aureus; experiment: Antibacterial activity against Staphylococcus aureus assessed as diameter zone of inhibition; type: functional
[32] = system: Bacillus subtilis; experiment: Antibacterial activity against Bacillus subtilis assessed as diameter zone of inhibition; type: functional
[33] = system: Escherichia coli; experiment: Antibacterial activity against Escherichia coli assessed as diameter zone of inhibition; type: functional
[34] = molecular target: T2, Vascular endothelial growth factor receptor 2
[35] = system: HepG2; experiment: Antiproliferative activity against human HepG2 cells; type: functional, cell-based
[36] = Antioxidant activity assessed as DPPH radical scavenging activity; type: functional
[37] = Antioxidant activity assessed as H2O2 radical scavenging activity; type: functional
[38] = Antioxidant activity assessed as NO radical scavenging activity; type: functional
[39] = Inhibition of ALR2 (unknown origin); parameters: species or system Homo sapiens
[40] = Inhibition of ALR1 (unknown origin) relative to control; parameters: concentration or dose not given beside the values; conditions: Homo sapiens; concentration not given here
[41] = Antioxidant activity assessed as DPPH radical scavenging activity at 100 uM; type: functional
[42] = Inhibition of lipid peroxidation at 100 uM by measuring MDA concentration; type: functional

For `N#Cc1ccc2ccc(=O)n(CCN3CC[C@H](NCc4cc5c(cn4)OCCO5)[C@H](F)C3)c2c1`, the MIC [1] was > 8 µg/mL, the MIC [2] was 0.06 µg/mL (≈ 0.129 µM) and the MIC [3] was 4 µg/mL (≈ 8.63 µM). The IC50 [4] was 48 nM, the pKa [5] was 4.47 and the MIC [6] was 0.13 µg/mL (≈ 0.28 µM).
With `O=C(O)c1cc2c3cc(Cl)c(Cl)cc3[nH]c(=O)n2n1` the Ki [7] was 2400 nM, the Ki [8] was 160 nM and the IC50 [9] was 41 µM. It also gave an IC50 [10] of 890 nM.
With `O=C(/C=C/c1ccccc1)/C=C1/Nc2ccccc2NC1=O` the IC50 [11] was 22.6 µM, the IC50 [12] was 16.6 µM and the IC50 [13] was 19.1 µM. The IC50 [14] was 174 µM.
For `Cc1ccc(S(=O)(=O)NCCCC(CC(F)(F)F)c2nc3ccccc3n(C)c2=O)cc1` (stereo not drawn), the Activity [15] was 23% and the “diameter of the inhibition zone (DIZ)” value [16] was 47 mm.
With `COc1ccc(C(=O)/C=C2/Nc3ccccc3NC2=O)cc1` the IC50 [11] was 66.9 µM, the IC50 [12] was 15.2 µM and the IC50 [13] was 24.3 µM. The IC50 [14] was 190 µM.
Compound `O=c1[nH]c2cc([N+](=O)[O-])c([N+](=O)[O-])cc2[nH]c1=O` [DNQX] has an IC50 [7] of 0.93 µM, an IC50 [17] of 1400 nM and an IC50 [9] of 2.2 µM.
For `O=C(Cn1c(=O)c(/C=C/c2ccncc2)nc2ccccc21)Nc1ccc(Cl)cc1`, the inhibition [18] was 44%, the IC50 [19] was > 100 µM and the IC50 [20] was > 100 µM. For the same compound, the IC50 [21] was > 100 µM, the IC50 [22] was 50.4 µM and the IC50 [12] was > 100 µM. The IC50 [23] was > 100 µM.
For `Cn1c(=O)c(C(CCCOC(=O)c2cccs2)CC(F)(F)F)nc2ccccc21` (stereo not drawn), the Activity [15] was 23% and the “diameter of the inhibition zone (DIZ)” value [16] was 47 mm.
Work on `O=c1[nH]c2cc(C(F)(F)F)c(-n3ccnc3)nc2n2ccnc12` yielded a Ki [7] of 66 nM and an IC50 [24] of 320 nM.
`C/C(=N\NC(=O)Cn1c(=O)c(C)nc2ccccc21)c1cccnc1` showed an MIC [25] of 125 µg/mL (≈ 373 µM), an MIC [2] of 250 µg/mL (≈ 745 µM) and an MIC [26] of 16.1 µg/mL (≈ 47.9 µM). The MIC [27] was 16.1 µg/mL (≈ 47.9 µM), the MIC [28] was 125 µg/mL (≈ 373 µM) and the MIC [29] was 8.06 µg/mL (≈ 24 µM). It also gave an MIC [30] of 25 µg/mL (≈ 74.5 µM).
In the case of `O=C(CC1=NC2CCCCC2NC1=O)NNC(=S)Nc1ccccc1` (stereo not drawn), the “diameter of the inhibition zone (DIZ)” value [31] is reported as 16 mm, the “diameter of the inhibition zone (DIZ)” value [32] is reported as 18 mm and the “diameter of the inhibition zone (DIZ)” value [33] is reported as 12 mm.
With `Cc1ccc(O)c(NC(=O)c2ccc(NC(=O)Cn3c(=O)c4nncn4c4ccccc43)cc2)c1` the IC50 [34] was 3.9 nM, the IC50 [19] was 8.1 µM and the IC50 [35] was 7.8 µM.
Compound `O=c1[nH]c2cc([N+](=O)[O-])c(-n3ccnc3)nc2n2ccnc12` has a Ki [7] of 57 nM and an IC50 [24] of 300 nM.
For `Cc1nc2ccccc2n(CC(=O)N/N=C/c2ccc(OCCn3cc(CN4CCCCC4)nn3)cc2)c1=O`, the IC50 [36] was 28.24 µg/mL (≈ 53.4 µM), the IC50 [37] was 54.34 µg/mL (≈ 103 µM) and the IC50 [38] was 52.08 µg/mL (≈ 98.5 µM).
Compound `Cc1nc2ccccc2n(CC(=O)N/N=C/c2ccc(OCCn3cc(CN4CCOCC4)nn3)cc2)c1=O` has an IC50 [36] of 25 µg/mL (≈ 47.1 µM), an IC50 [37] of 49.01 µg/mL (≈ 92.4 µM) and an IC50 [38] of 47.16 µg/mL (≈ 88.9 µM).
For `N#Cc1ccc2c(c1)N(CCN1CCC(NCc3ccc4c(n3)NC(=O)CO4)CC1)C(=O)CO2`, the MIC [1] was 2 µg/mL (≈ 4.32 µM), the MIC [2] was 0.13 µg/mL (≈ 0.281 µM) and the MIC [3] was 0.25 µg/mL (≈ 0.541 µM). The IC50 [4] was 3.2 nM and the MIC [6] was 0.5 µg/mL (≈ 1.08 µM).
In the case of `O=C(O)Cn1c(=O)c(Oc2ccc(O)cc2)nc2cc(F)ccc21`, the IC50 [39] is reported as 19.6 nM, the inhibition [40] is reported as 11.8% and the Activity [41] is reported as 23.7%. It also gave an inhibition [42] of 14.3%.
`Cc1cc2[nH]c(=O)c(=O)[nH]c2cc1C=O` showed an IC50 [7] of 11 µM, an IC50 [17] of 4000 nM and an IC50 [9] of 54 µM.
Work on `O=C(O)c1nc2c(=O)[nH]c3cc(Cl)c(Cl)cc3n2n1` yielded a Ki [7] of 1300 nM, a Ki [8] of 74 nM and an EC50 [10] of 300 nM.
For `COc1ccc(C(=O)Nc2cccc(C(=O)/C=C3/Nc4ccccc4NC3=O)c2)cc1`, the IC50 [11] was 40.4 µM, the IC50 [12] was 10.5 µM and the IC50 [13] was 16.8 µM. It also gave an IC50 [14] of 182 µM.
For `O=c1[nH]c2ccccc2nc1Cc1nnc(S)o1`, the “diameter of the inhibition zone (DIZ)” value [31] was 11 mm and the “diameter of the inhibition zone (DIZ)” value [32] was 10 mm.
Work on `CCc1cnc2c(=O)[nH]c3cc([N+](=O)[O-])c(-n4ccnc4)nc3n12` yielded a Ki [7] of 20 nM and an IC50 [24] of 300 nM.
